{"source": "patent US6800762B2", "about": "“Indolin derivaties as sun protection agents” (Ciba Specialty Chemicals Corporation, priority 1998, dated 2004)", "key": {"[1]": {"assay": "UV absorption: molar extinction coefficient at λmax", "format": "physicochemical", "source_text": "ε=62081 in ethanol l/(mol/cm) at λmax=434 nm, elemental analysis for C24H32N2O2[%]:"}, "photostability": {"assay": "photostability", "format": "physicochemical", "details": "read-out: photostability t1/2 (converted)"}}}
{"smiles": "CN1/C(=C\\C=O)C(C)(C)c2ccccc21", "note": "[Example 1, 2-(1,3,3-trimethyl-indolin-2-ylene) acetaldehyde]", "values": [{"measurement": "ε", "setting": "[1]; in ethanol at λmax", "result": "34520 l/(mol/cm)"}, {"measurement": "half-life", "setting": "photostability", "result": 208, "unit": "h"}]}
{"smiles": "CCCCC(CC)COC(=O)/C(C#N)=C/C=C1\\N(C)c2ccccc2C1(C)C", "note": "(stereo not drawn) [Example 2]", "values": [{"measurement": "λmax", "setting": "[1]; in ethanol", "result": 434, "unit": "nm"}, {"measurement": "ε", "setting": "[1]; in ethanol at λmax", "result": "62081 l/(mol/cm)"}]}
{"smiles": "CN1/C(=C/C(=O)c2ccccc2)C(C)(C)c2ccccc21", "note": "[Example 3]", "values": [{"measurement": "λmax", "setting": "[1]; in dioxane", "result": 377, "unit": "nm"}, {"measurement": "ε", "setting": "[1]; in dioxane at λmax", "result": "29427 l/(mol/cm)"}]}
